Data: patent US12521396B2, “Pharmaceutical compositions comprising a MENIN inhibitor” (Kura Oncology, Inc., priority 2023, dated 2026)

Assays:
[1] = Solid form stability on standing after recrystallization from MEK/IPA; assay type: physicochemical; details: recrystallized from MEK/IPA at 40° C., filtered at 25° C.
Experimental: Preparation A: Amorphous Compound 1 (prepared as described in U.S. Pat. No. 10,781,218, which is herein incorporated by reference in its entirety) was dissolved in 1:1 MEK/IPA v/v (4.5 mL/g) at ˜50-65° C. under N2. The solution was cooled to 33-37° C. Seed crystals were added (0.8-1.2 wt % relative to Compound 1) and the mixture was stirred for 4-6 h at 33-37° C. The mixture was cooled to 23-27° C. over 3-4 hours and stirred for 16-24 hours. Isopropanol (8.6-9.1 mL/g Compound 1) was added at 23-27° C. over 9-11 hours and then the mixture was stirred for 5-6 hours. The mixture was cooled to 3-8° C. over 4-6 hours and stirred for at least 24 hours. The resulting solid precipitate was collected at 5° C. The filter cake was rinsed with IPA (1.8-2.1 mL/g Compound 1) at 3-8° C. and dried under vacuum at 45-55° C. for 24-32 hours. XRPD analysis confirmed the isolated material as crystalline Compound 1, Form 1. Purity of 99.5% by HPLC and total residual solvents was about 0.4% wt by ^1H NMR. Recrystallization of Compound 1, Form 1, in MEK/IPA (6 v/12 v) by dissolving in MEK and adding IPA in portions at 25° C., stirring the suspension after addition of each IPA portion, cooling to 5° C., and stirring at 5° C. for 20 h produced a wet cake that was a mixture of two crystalline forms (Form 2 and Form 5) that were not Form 1. […]

[2] = Excipient compatibility and formulation stability studies; assay type: physicochemical; details: excipient compatibility studies for tablet formulations
From the text: Compound 1 drug substance may have a low bulk density, small particle size, and needle-like morphology, all leading to poor flowability. Dry granulation using roller compaction was improved the powder flow and bulk density characteristics to enable capsule-filling. In addition, while glidants such as talc and colloidal silicon dioxide were not effective in improving powder flow and bulk density characteristics, mannitol and microcrystalline cellulose fillers improved the blend flow in the roller compactor.
In particular, these studies indicated less risk of instability in the presence of lactose as a diluent compared to mannitol.

Solid form stability upon standing [1] | SMILES | Stability of Compound 1 with excipients [2]
converted to Form 5 | CNc1nc(NC2CCN(Cc3ccc4c(cc(C#N)n4C[C@H](C)N4CCN(S(C)(=O)=O)CC4)c3C)CC2)c2cc(CC(F)(F)F)sc2n1 [Form 1, (S)-4-methyl-5-((4-((2-(methylamino)-6-(2,2,2-trifluoroethyl)thieno[2,3-d]pyrimidin-4-yl)amino)piperidin-1-yl)methyl)-1-(2-(4-(methylsulfonyl)piperazin-1-yl)propyl)-1H-indole-2-carbonitrile] | –
– | CNc1nc(NC2CCN(Cc3ccc4c(cc(C#N)n4C[C@H](C)N4CCN(S(C)(=O)=O)CC4)c3C)CC2)c2cc(CC(F)(F)F)sc2n1 [Compound 1, (S)-4-methyl-5-((4-((2-(methylamino)-6-(2,2,2-trifluoroethyl)thieno[2,3-d]pyrimidin-4-yl)amino)piperidin-1-yl)methyl)-1-(2-(4-(methylsulfonyl)piperazin-1-yl)propyl)-1H-indole-2-carbonitrile] | impact to Compound 1 stability with certain excipients
